Tests used:
[1] = biological target: T1, hTopI-DNA cleavage complex (Homo sapiens, UniProt P11387); experiment: SPR assay on sensor chip with immobilized hTop I, inhibitor together with pUC19 plasmid DNA in analytes; assay type: binding
T1 construct: made in house
T1 sequence (P11387 1-765): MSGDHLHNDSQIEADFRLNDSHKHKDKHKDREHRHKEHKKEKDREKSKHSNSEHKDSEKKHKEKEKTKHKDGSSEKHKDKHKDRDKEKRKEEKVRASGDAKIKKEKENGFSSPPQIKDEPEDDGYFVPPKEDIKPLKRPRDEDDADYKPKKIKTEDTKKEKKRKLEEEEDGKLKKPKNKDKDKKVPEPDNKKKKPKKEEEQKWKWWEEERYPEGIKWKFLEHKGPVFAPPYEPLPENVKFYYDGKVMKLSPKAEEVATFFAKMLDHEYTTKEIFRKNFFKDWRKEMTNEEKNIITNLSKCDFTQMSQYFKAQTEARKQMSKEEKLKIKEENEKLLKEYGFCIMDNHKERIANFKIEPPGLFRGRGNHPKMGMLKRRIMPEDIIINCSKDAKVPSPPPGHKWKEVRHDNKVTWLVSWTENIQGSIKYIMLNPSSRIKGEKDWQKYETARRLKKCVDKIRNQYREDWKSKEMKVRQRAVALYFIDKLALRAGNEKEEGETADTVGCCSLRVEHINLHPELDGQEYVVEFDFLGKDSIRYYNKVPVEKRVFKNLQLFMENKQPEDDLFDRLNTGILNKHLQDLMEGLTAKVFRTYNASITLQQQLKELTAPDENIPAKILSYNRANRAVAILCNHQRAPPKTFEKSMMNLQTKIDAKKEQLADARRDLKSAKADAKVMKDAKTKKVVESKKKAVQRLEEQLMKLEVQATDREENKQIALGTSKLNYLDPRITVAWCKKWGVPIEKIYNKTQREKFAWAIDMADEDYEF
Procedure: (§1) Briefly, the surface of the micro-fluid chip is activated with 0.05-0.5 M N-hydroxysuccinimide and 0.1-0.5 M N-ethyl-N′-(3-dimethylaminopropyl) carbodiimimide at a flow rate of 25 μL/min. The hTop I is diluted in 10 mM sodium acetate and adjusted pH values to pH 3.0-10.0, preferably to pH 5.0-8.5, especially to pH 7.5. The hTop I is immobilized on the micro-fluid chip at 20-40[…] (preferably at 25[…]) using a flow rate of 10-40 μL/min (preferably 25-30 μL/min, specially 25 μL/min) for 60-300 seconds (preferably 200-300 seconds), and therefore the contents of the hTop I are about 20-150 μL. Activated amine groups are quenched with injecting 1 M ethanolamine (pH 7.0-9.0). Recombinant hTop I was covalently coupled to the carboxymethylated dextran surface of the chip using standard amine-coupling chemistry.
To characterize the drug-binding kinetics using the SPR sensor chip, plasmid DNA (1.0 μg/ml) is included in the analytes. […] The interaction causes an increase in the higher the mass of ligands immobilized on the micro-fluid chip, and is reflected in a rise in RUs.

[2] = biological target: T2, recombinant human topoisomerase I (hTop I) (Homo sapiens, UniProt P11387); experiment: Gel electrophoresis assay of pUC19 supercoiled DNA relaxation by hTop I; assay type: biochemical; conditions: pUC19 plasmid DNA with hTop I, agarose gel, CPT 2-8 μM, FIG. 4 lanes 3-6
T2 construct: made in house
T2 sequence (P11387 1-765): T1 sequence (P11387 1-765)
From the text: The pUC19 plasmid DNA is closely circular double-stranded supercoiled DNA. When the pUC19 plasmid DNA is interacted with the Top I, one strand of the circular double-stranded supercoiled DNA is cleaved, separated and religated to form a relaxed form. A gel electrophoresis assay is used to evaluate the conformational change of pUC19 plasmid DNA.

[3] = biological target: T3, immobilized hTop I (Homo sapiens, UniProt P11387); experiment: SPR assay on sensor chip with immobilized hTop I, inhibitor alone without DNA in analytes; assay type: binding; conditions: CPT alone 0-250 nM, no DNA in analytes, FIG. 8
T3 construct: made in house
T3 sequence (P11387 1-765): T1 sequence (P11387 1-765)
Procedure: as §1
[…] […] The interaction causes an increase in the higher the mass of ligands immobilized on the micro-fluid chip, and is reflected in a rise in RUs.

[4] = pUC19 plasmid DNA 1.0 μg/ml plus CPT, compared to DNA only, ProteOn Manager 2.0 calculation

| SMILES | binding to hTop I immobilized on the micro-fluid chip ([1]; VP-16 and pUC19 plasmid DNA loaded simultaneously) | inhibitory effect on hTop I relaxation activity (supercoiled DNA retained) [2] | binding to hTop I (RU values) [3] | RU response (binding) ([1]; pUC19 plasmid DNA 1.0 μg/ml plus CPT 0, 62.5, 125 and 250 nM, FIG. 9) | Ka [1, 4] | Kd [1, 4] |
| --- | --- | --- | --- | --- | --- | --- |
| COc1cc([C@@H]2c3cc4c(cc3[C@@H](O[C@@H]3O[C@@H]5CO[C@@H](C)O[C@H]5[C@H](O)[C@H]3O)[C@H]3COC(=O)[C@H]23)OCO4)cc(OC)c1O [VP-16, etoposide] | does not bind to the hTop I |  |  |  |  |  |
| CC[C@@]1(O)C(=O)OCc2c1cc1n(c2=O)Cc2cc3ccccc3nc2-1 [CPT, camptothecin] |  | inhibited hTop I relaxation activity | does not bind to hTopI without DNA | RU increases in a concentration-dependent manner | 9.11×10^7 | 3.74×10^−21 |

Source: patent US9005922B2, “Sensor chip for screening topoisomerase inhibitor and screening method thereof” (Taipei Medical University, priority 2010, dated 2015)
